Experimental data as given in ChEMBL document CHEMBL4507287, “Data for DCP probe MRL-650” (2021).

Assays:
Conditions in all cases: Compound concentration 1000.0 nM
[1] = target: Calcium/calmodulin-dependent protein kinase type II subunit delta (Homo sapiens) (UniProt Q13557)
[2] = target: Tyrosine-protein kinase Srms (Homo sapiens) (UniProt Q9H3Y6)
[3] = target: Fibroblast growth factor receptor 2 (Homo sapiens) (UniProt P21802)
[4] = target: Protein kinase C theta type (Homo sapiens) (UniProt Q04759)
[5] = target: Tyrosine-protein kinase ABL1 (Homo sapiens) (UniProt P00519)
[6] = target: G protein-coupled receptor kinase 4 (Homo sapiens) (UniProt P32298)
[7] = target: Phosphatidylinositol 3-kinase catalytic subunit type 3 (Homo sapiens) (UniProt Q8NEB9)
[8] = target: Beta-adrenergic receptor kinase 1 (Homo sapiens) (UniProt P25098)
[9] = tested on: Serine/threonine-protein kinase B-raf (Homo sapiens), P15056 [V600E]
[10] = target: Cyclin-dependent kinase-like 3 (Homo sapiens) (UniProt Q8IVW4)
[11] = target: Mitogen-activated protein kinase 3 (Homo sapiens) (UniProt P27361)
[12] = target: Serine/threonine-protein kinase 4 (Homo sapiens) (UniProt Q13043)
[13] = target: Serine/threonine-protein kinase LATS2 (Homo sapiens) (UniProt Q9NRM7)
[14] = target: Casein kinase I isoform gamma-3 (Homo sapiens) (UniProt Q9Y6M4)
[15] = target: Dual specificity protein kinase CLK2 (Homo sapiens) (UniProt P49760)
[16] = target: Phosphorylase b kinase gamma catalytic chain, skeletal muscle/heart isoform (Homo sapiens) (UniProt Q16816)
[17] = target: Dual serine/threonine and tyrosine protein kinase (Homo sapiens) (UniProt Q6XUX3)
[18] = target: Serine/threonine-protein kinase pim-3 (Homo sapiens) (UniProt Q86V86)
[19] = tested on: Receptor-type tyrosine-protein kinase FLT3 (Homo sapiens), P36888 [N841I]
[20] = tested on: ALK tyrosine kinase receptor (Homo sapiens), Q9UM73 [L1196M]
[21] = tested on: Tyrosine-protein kinase ABL1 (Homo sapiens), P00519 [E255K]
[22] = tested on: Tyrosine-protein kinase ABL1 (Homo sapiens), P00519 [H396P]
[23] = target: Proto-oncogene tyrosine-protein kinase Src (Homo sapiens) (UniProt P12931)
[24] = target: Phosphatidylinositol 4,5-bisphosphate 3-kinase catalytic subunit gamma isoform (Homo sapiens) (UniProt P48736)
[25] = target: Mitogen-activated protein kinase kinase kinase 19 (Homo sapiens) (UniProt Q56UN5)
[26] = target: Serine/threonine-protein kinase 25 (Homo sapiens) (UniProt O00506)
[27] = target: Serine/threonine-protein kinase MRCK beta (Homo sapiens) (UniProt Q9Y5S2)
[28] = target: Ephrin type-A receptor 8 (Homo sapiens) (UniProt P29322)
[29] = target: Serine/threonine-protein kinase DCLK1 (Homo sapiens) (UniProt O15075)
[30] = target: Phosphatidylinositol 4-phosphate 3-kinase C2 domain-containing subunit beta (Homo sapiens) (UniProt O00750)
[31] = target: Serine/threonine-protein kinase 38 (Homo sapiens) (UniProt Q15208)
[32] = target: Serine/threonine-protein kinase 10 (Homo sapiens) (UniProt O94804)
[33] = target: Serine/threonine-protein kinase 32A (Homo sapiens) (UniProt Q8WU08)
[34] = target: Vascular endothelial growth factor receptor 2 (Homo sapiens) (UniProt P35968)
[35] = target: Serine/threonine-protein kinase 24 (Homo sapiens) (UniProt Q9Y6E0)
[36] = target: Serine/threonine-protein kinase WNK2 (Homo sapiens) (UniProt Q9Y3S1)
[37] = target: Ribosomal protein S6 kinase alpha-5 (Homo sapiens) (UniProt O75582)
[38] = tested on: Epidermal growth factor receptor (Homo sapiens), P00533 [UNDEFINED MUTATION]
[39] = tested on: Receptor-type tyrosine-protein kinase FLT3 (Homo sapiens), P36888 [UNDEFINED MUTATION]
[40] = target: Cyclin-dependent kinase-like 5 (Homo sapiens) (UniProt O76039)
[41] = tested on: Epidermal growth factor receptor (Homo sapiens), P00533 [T790M]
[42] = target: Protein kinase C delta type (Homo sapiens) (UniProt Q05655)
[43] = target: Serine/threonine-protein kinase Nek3 (Homo sapiens) (UniProt P51956)
[44] = target: Death-associated protein kinase 2 (Homo sapiens) (UniProt Q9UIK4)
[45] = target: Ephrin type-A receptor 6 (Homo sapiens) (UniProt Q9UF33)

Sequence of Serine/threonine-protein kinase WNK2 (Homo sapiens) (Q9Y3S1 whole entry): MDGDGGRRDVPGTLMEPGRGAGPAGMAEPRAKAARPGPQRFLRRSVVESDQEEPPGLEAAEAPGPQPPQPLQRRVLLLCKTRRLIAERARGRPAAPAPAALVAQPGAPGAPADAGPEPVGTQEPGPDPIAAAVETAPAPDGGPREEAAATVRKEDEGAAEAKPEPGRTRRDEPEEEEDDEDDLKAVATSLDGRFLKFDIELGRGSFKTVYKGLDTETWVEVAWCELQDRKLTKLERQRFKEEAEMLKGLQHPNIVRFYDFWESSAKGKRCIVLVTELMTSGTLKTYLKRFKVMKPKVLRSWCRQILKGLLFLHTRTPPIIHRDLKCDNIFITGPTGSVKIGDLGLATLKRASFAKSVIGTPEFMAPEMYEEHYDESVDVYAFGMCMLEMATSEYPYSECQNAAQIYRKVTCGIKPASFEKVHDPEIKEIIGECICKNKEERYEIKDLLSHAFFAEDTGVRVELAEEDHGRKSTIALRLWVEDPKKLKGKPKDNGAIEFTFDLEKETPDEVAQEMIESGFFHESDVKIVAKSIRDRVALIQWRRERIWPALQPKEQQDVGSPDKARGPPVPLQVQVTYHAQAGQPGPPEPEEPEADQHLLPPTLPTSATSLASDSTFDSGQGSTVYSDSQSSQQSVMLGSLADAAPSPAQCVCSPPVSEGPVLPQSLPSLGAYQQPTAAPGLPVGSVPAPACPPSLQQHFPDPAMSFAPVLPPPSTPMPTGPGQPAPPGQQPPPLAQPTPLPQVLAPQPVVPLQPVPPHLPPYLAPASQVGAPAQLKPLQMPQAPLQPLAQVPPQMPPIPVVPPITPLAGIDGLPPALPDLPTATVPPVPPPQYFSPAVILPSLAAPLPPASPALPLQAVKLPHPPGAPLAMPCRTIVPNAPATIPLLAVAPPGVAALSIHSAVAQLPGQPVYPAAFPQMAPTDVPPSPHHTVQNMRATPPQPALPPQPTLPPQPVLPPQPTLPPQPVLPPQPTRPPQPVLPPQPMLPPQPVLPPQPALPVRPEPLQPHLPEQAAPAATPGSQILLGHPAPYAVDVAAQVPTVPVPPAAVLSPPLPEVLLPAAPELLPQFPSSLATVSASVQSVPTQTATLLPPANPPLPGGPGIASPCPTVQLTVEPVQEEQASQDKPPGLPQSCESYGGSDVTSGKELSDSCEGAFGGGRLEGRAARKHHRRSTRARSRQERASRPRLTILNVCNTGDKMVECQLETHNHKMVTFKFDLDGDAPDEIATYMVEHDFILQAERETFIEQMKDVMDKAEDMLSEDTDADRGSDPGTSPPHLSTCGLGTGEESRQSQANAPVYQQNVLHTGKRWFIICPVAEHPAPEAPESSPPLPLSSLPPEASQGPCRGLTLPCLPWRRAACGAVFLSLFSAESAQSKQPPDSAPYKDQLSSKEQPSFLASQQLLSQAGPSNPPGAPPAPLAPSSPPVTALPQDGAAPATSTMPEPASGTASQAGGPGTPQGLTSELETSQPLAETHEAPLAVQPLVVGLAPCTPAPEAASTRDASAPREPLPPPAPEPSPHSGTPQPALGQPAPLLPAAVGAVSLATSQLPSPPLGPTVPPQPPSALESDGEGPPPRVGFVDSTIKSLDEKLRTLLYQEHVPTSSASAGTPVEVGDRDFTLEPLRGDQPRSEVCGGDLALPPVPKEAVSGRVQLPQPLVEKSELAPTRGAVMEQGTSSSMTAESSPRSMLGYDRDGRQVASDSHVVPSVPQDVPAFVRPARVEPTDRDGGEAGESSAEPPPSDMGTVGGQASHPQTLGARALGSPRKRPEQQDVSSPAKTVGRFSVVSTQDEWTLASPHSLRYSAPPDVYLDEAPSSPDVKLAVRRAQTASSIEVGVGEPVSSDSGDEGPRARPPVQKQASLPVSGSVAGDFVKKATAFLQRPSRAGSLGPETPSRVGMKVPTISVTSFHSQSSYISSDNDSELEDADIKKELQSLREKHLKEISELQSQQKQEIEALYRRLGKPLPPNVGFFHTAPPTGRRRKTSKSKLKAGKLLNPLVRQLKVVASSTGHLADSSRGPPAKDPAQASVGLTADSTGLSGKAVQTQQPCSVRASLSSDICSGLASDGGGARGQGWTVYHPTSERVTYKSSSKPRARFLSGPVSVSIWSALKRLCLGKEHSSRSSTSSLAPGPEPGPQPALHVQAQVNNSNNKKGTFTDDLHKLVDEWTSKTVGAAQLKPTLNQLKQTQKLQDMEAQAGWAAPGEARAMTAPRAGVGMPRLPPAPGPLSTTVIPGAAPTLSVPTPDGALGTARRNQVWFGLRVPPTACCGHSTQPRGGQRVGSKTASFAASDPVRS
Sequence of Serine/threonine-protein kinase 25 (Homo sapiens) (O00506 whole entry, looked up): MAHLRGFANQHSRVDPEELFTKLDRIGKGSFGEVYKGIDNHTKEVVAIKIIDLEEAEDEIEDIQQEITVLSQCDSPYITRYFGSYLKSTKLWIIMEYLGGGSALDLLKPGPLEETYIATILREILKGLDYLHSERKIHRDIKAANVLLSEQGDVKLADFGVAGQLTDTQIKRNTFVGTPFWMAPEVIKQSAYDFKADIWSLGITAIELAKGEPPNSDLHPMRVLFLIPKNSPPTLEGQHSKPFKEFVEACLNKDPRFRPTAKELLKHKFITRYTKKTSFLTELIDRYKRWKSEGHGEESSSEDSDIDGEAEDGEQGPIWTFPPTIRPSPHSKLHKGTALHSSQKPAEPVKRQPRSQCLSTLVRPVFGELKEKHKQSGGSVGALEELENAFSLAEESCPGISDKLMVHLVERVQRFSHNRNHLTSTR
Sequence of Death-associated protein kinase 2 (Homo sapiens) (Q9UIK4 whole entry, looked up): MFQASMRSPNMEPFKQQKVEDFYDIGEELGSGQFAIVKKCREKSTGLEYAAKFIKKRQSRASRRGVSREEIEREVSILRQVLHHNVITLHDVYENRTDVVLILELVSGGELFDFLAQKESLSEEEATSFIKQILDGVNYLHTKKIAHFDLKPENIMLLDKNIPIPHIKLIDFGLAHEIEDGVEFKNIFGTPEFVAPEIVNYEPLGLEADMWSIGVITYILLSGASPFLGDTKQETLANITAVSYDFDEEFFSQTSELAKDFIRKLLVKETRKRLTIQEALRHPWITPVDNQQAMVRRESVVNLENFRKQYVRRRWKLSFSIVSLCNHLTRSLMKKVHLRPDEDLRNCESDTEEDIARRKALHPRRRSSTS
Sequence of Serine/threonine-protein kinase 10 (Homo sapiens) (O94804 whole entry, looked up): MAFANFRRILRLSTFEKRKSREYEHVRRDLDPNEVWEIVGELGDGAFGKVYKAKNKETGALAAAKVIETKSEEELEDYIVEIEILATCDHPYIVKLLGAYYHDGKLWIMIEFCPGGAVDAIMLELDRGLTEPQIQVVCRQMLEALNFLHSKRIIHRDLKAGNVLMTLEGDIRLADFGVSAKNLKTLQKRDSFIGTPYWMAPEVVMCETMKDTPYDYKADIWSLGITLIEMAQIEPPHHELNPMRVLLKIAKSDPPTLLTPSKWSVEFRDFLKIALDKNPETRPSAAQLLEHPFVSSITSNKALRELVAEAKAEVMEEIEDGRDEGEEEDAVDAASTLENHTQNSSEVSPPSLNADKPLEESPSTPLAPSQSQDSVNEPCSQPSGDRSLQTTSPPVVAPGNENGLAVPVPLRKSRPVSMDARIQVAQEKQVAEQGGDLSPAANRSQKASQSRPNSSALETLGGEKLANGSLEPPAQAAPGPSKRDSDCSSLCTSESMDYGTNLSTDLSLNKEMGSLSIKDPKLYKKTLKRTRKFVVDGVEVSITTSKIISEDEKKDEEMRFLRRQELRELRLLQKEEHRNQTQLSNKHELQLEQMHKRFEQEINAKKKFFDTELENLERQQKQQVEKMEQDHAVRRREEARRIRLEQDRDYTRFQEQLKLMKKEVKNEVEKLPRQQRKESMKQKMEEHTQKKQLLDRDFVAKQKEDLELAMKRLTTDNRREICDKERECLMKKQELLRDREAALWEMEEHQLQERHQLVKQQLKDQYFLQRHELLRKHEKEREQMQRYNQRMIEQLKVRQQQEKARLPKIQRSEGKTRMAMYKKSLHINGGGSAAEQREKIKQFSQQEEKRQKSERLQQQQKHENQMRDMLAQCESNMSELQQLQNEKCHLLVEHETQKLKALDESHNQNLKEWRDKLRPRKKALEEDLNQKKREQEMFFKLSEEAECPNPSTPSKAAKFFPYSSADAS
Sequence of Proto-oncogene tyrosine-protein kinase Src (Homo sapiens) (P12931 2-536 limits assumed): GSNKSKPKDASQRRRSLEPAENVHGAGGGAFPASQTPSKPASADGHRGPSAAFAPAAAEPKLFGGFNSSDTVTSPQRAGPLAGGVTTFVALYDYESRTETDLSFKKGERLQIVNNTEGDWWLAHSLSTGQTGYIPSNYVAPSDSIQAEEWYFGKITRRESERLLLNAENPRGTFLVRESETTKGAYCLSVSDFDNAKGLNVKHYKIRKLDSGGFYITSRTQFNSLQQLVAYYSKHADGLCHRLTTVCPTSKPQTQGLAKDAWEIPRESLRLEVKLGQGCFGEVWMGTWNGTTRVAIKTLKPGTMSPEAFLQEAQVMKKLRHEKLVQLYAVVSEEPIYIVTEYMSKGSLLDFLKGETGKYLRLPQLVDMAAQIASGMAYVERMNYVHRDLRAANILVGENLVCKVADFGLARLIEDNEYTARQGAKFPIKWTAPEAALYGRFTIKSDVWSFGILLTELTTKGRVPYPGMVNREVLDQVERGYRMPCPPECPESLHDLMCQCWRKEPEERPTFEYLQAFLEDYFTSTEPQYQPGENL

## CC(=O)c1c(NS(C)(=O)=O)c2cc(-c3ccc(Cl)cc3)c(-c3ccc(Cl)cc3Cl)nc2n(C)c1=O [MRL-CB1-NC]
[1]
  residual activity: 100%
[2]
  residual activity: 71%
[3]
  residual activity: 92%
[4]
  residual activity: 100%
[5]
  residual activity: 92%
[6]
  residual activity: 94%
[7]
  residual activity: 93%
[8]
  residual activity: 74%
[9]
  residual activity: 88%
[10]
  residual activity: 100%
[11]
  residual activity: 100%
[12]
  residual activity: 100%
[13]
  residual activity: 78%
[14]
  residual activity: 100%
[15]
  residual activity: 100%
[16]
  residual activity: 94%
[17]
  residual activity: 100%
[18]
  residual activity: 100%
[19]
  residual activity: 100%
[20]
  residual activity: 97%
[21]
  residual activity: 100%
[22]
  residual activity: 100%
[23]
  residual activity: 100%
[24]
  residual activity: 82%
[25]
  residual activity: 85%
[26]
  residual activity: 100%
[27]
  residual activity: 81%
[28]
  residual activity: 97%
[29]
  residual activity: 98%
[30]
  residual activity: 100%
[31]
  residual activity: 77%
[32]
  residual activity: 100%
[33]
  residual activity: 87%
[34]
  residual activity: 82%
[35]
  residual activity: 97%
[36]
  residual activity: 62%
[37]
  residual activity: 72%
[38]
  residual activity: 100%
[39]
  residual activity: 98%
[40]
  residual activity: 94%
[41]
  residual activity: 64%
[42]
  residual activity: 98%
[43]
  residual activity: 67%
[44]
  residual activity: 100%
[45]
  residual activity: 93%

## CC(=O)Nc1c(C(C)=O)c(=O)n(C)c2nc(-c3ccc(Cl)cc3Cl)c(-c3ccc(Cl)cc3)cc12 [NAPHTHYRIDINONE]
[1]
  residual activity: 100%
[2]
  residual activity: 78%
[3]
  residual activity: 100%
[4]
  residual activity: 100%
[5]
  residual activity: 81%
[6]
  residual activity: 100%
[7]
  residual activity: 100%
[8]
  residual activity: 84%
[9]
  residual activity: 100%
[10]
  residual activity: 100%
[11]
  residual activity: 100%
[12]
  residual activity: 100%
[13]
  residual activity: 100%
[14]
  residual activity: 100%
[15]
  residual activity: 100%
[16]
  residual activity: 100%
[17]
  residual activity: 100%
[18]
  residual activity: 100%
[19]
  residual activity: 100%
[20]
  residual activity: 100%
[21]
  residual activity: 94%
[22]
  residual activity: 100%
[23]
  residual activity: 100%
[24]
  residual activity: 78%
[25]
  residual activity: 100%
[26]
  residual activity: 100%
[27]
  residual activity: 100%
[28]
  residual activity: 100%
[29]
  residual activity: 100%
[30]
  residual activity: 48%
[31]
  residual activity: 93%
[32]
  residual activity: 100%
[33]
  residual activity: 82%
[34]
  residual activity: 94%
[35]
  residual activity: 100%
[36]
  residual activity: 95%
[37]
  residual activity: 86%
[38]
  residual activity: 92%
[39]
  residual activity: 100%
[40]
  residual activity: 100%
[41]
  residual activity: 100%
[42]
  residual activity: 100%
[43]
  residual activity: 100%
[44]
  residual activity: 100%
[45]
  residual activity: 100%
